Data from ChEMBL document CHEMBL1201862, “PubChem BioAssay data set” (2004).
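Following 48 hours of exposure in 96-well plates, responses at five concentrations were used to interpolate endpoints linearly. GI50: concentration for 50% inhibition of growth.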 The source made the active and inactive calls. Rule as the data show it: active = GI50 up to about 1.1 µM and inactive = higher.

Assays:
Assay in all cases: NCI-60 cell line screen, 48 h
A498 = system: A498
ACHN = system: ACHN
HCC 2998 = system: HCC 2998
HCT-15 = system: HCT-15
HL-60 = system: HL-60
HOP-62 = system: HOP-62
M14 = system: M14
MCF7 = system: MCF7
MDA-MB-231 = system: MDA-MB-231
MDA-MB-435 = system: MDA-MB-435
Malme-3M = system: Malme-3M
NCI-H226 = system: NCI-H226
OVCAR-3 = system: OVCAR-3
OVCAR-5 = system: OVCAR-5
OVCAR-8 = system: OVCAR-8
SF-295 = system: SF-295
SK-MEL-5 = system: SK-MEL-5
SN12C = system: SN12C
SNB-19 = system: SNB-19
SNB-75 = system: SNB-75

| Structure (SMILES) | GI50 (A498) | GI50 (ACHN) | GI50 (HCC 2998) | GI50 (HCT-15) | GI50 (HL-60) | GI50 (HOP-62) | GI50 (M14) | GI50 (MCF7) | GI50 (MDA-MB-231) | GI50 (MDA-MB-435) | GI50 (Malme-3M) | GI50 (NCI-H226) | GI50 (OVCAR-3) | GI50 (OVCAR-5) | GI50 (OVCAR-8) | GI50 (SF-295) | GI50 (SK-MEL-5) | GI50 (SN12C) | GI50 (SNB-19) | GI50 (SNB-75) |
| --- | --- | --- | --- | --- | --- | --- | --- | --- | --- | --- | --- | --- | --- | --- | --- | --- | --- | --- | --- | --- |
| COc1ccc(CCN2COc3ccc4ccc(=O)oc4c3C2)cc1OC | > 100 µM (inactive) | > 100 µM (inactive) | > 100 µM (inactive) | > 100 µM | 19.1 µM (inactive) | > 100 µM (inactive) | > 100 µM (inactive) | 89.5 µM (inactive) | > 100 µM (inactive) | > 100 µM (inactive) | > 100 µM (inactive) | > 100 µM (inactive) | > 100 µM (inactive) | > 100 µM (inactive) | > 100 µM (inactive) | > 100 µM (inactive) | 58.1 µM (inactive) | > 100 µM (inactive) | > 100 µM (inactive) | > 100 µM (inactive) |
| N/C(=N\c1ccc(Cl)c(Cl)c1)c1ccccc1N | 22.3 µM (inactive) | 56.8 µM (inactive) | 17.7 µM (inactive) | 28.2 µM | 22.2 µM (inactive) | 57.4 µM (inactive) | 15.5 µM (inactive) | 52.1 µM (inactive) | 25.3 µM (inactive) | 18.5 µM (inactive) | 19 µM (inactive) | 42.6 µM (inactive) | 39.5 µM (inactive) | 36 µM (inactive) | 26.4 µM (inactive) | 40.6 µM (inactive) | 22.6 µM (inactive) |  | 31.3 µM (inactive) | 31.4 µM (inactive) |
| O=C1C=CC(=O)c2c1ccc1c3ccccc3n(Cc3cccc([N+](=O)[O-])c3)c21 | 58.3 µM (inactive) | 18.2 µM (inactive) | > 80.7 µM (inactive) | 21.5 µM | 6.9 µM (inactive) | > 100 µM (inactive) | 27.7 µM (inactive) | 22.3 µM (inactive) | 24.2 µM (inactive) | 26.2 µM (inactive) | 19.5 µM (inactive) | 99.3 µM (inactive) | 17.1 µM (inactive) | > 100 µM (inactive) | 30.4 µM (inactive) | > 100 µM (inactive) | 53.3 µM (inactive) | 21.8 µM (inactive) | > 100 µM (inactive) | > 78.2 µM (inactive) |
| O=[N+]([O-])c1ccc(Oc2c(Cl)cc(S(=O)(=O)N/C(=N\O)Nc3ccc(Cl)cc3)cc2Cl)c(Cl)c1 | 12.7 µM (inactive) | 15 µM (inactive) | 16 µM (inactive) | 16.3 µM | 26.2 µM (inactive) | 16.5 µM (inactive) | 16.5 µM (inactive) | 17.2 µM (inactive) | 17 µM (inactive) | 16.6 µM (inactive) | 14.6 µM (inactive) | 25.3 µM (inactive) | 12.2 µM (inactive) | 19.5 µM (inactive) | 22.8 µM (inactive) | 17.3 µM (inactive) | 16.9 µM (inactive) | 14.3 µM (inactive) | 16.9 µM (inactive) |  |
| COC(=O)[C@H](CNC(=O)/C=C/c1ccc(OC(C)=O)c(OC(C)=O)c1)NC(=O)/C=C/c1ccc(OC(C)=O)c(OC(C)=O)c1 | > 100 µM (inactive) | > 100 µM (inactive) | > 100 µM (inactive) | 69.7 µM | > 100 µM (inactive) | > 100 µM (inactive) | > 100 µM (inactive) | > 100 µM (inactive) | > 100 µM (inactive) | > 100 µM (inactive) | 16.4 µM (inactive) | > 100 µM (inactive) | > 100 µM (inactive) | > 100 µM (inactive) | > 100 µM (inactive) |  | 62.7 µM (inactive) | > 100 µM (inactive) | > 100 µM (inactive) | > 100 µM (inactive) |
| C=C(C)[C@@]1(O[Si](C)(C)C)CCCC[C@@H]1CC(Sc1ccccc1)Sc1ccccc1 | 19.9 µM (inactive) | 15.4 µM (inactive) | 15.8 µM (inactive) | 12.3 µM | 16.7 µM (inactive) | 13.8 µM (inactive) | 14.9 µM (inactive) | 12 µM (inactive) | 16.8 µM (inactive) | 15.6 µM (inactive) | 12.1 µM (inactive) | 16.1 µM (inactive) | 14.1 µM (inactive) | 16.2 µM (inactive) | 16.1 µM (inactive) | 12.4 µM (inactive) | 16.3 µM (inactive) |  | 16.4 µM (inactive) | 12.1 µM (inactive) |
| CC/C(=C\c1ccc(Cl)c(Cl)c1)[N+](=O)[O-] | 8.18 µM (inactive) | 1.75 µM (inactive) | 1.7 µM (inactive) | 1.66 µM | 1.18 µM (inactive) | 2.96 µM (inactive) | 1.45 µM (inactive) | 1.15 µM (inactive) | 2.53 µM (inactive) | 1.71 µM (inactive) | 1.92 µM (inactive) | 2.23 µM (inactive) |  | 2.06 µM (inactive) | 1.68 µM (inactive) | 2.04 µM (inactive) | 1.97 µM (inactive) | 2.09 µM (inactive) | 2.36 µM (inactive) | 3.84 µM (inactive) |
| O=C1CC(NC(=O)C(F)(F)F)c2c(Br)sc(N3CCC(c4ccccc4)CC3)c21 (configuration not stated) | > 100 µM (inactive) | 28.1 µM (inactive) | > 100 µM (inactive) | 25.1 µM | 9.44 µM (inactive) |  | > 100 µM (inactive) | 18.7 µM (inactive) | 3.73 µM (inactive) | > 100 µM (inactive) | > 100 µM (inactive) | 28.4 µM (inactive) | 6.25 µM (inactive) | > 100 µM (inactive) | 24.9 µM (inactive) | 4.48 µM (inactive) | 6.03 µM (inactive) | > 100 µM (inactive) | 20.8 µM (inactive) | 69.3 µM (inactive) |
| C=C1C(C2(C)C=CC(=O)OC3(C)COC(=O)CC32)C(OC=O)C(OC(=O)C(O)C(C)CC)C2(C)C(c3ccoc3)CC(OC(C)=O)C12O (configuration not stated) | > 100 µM (inactive) | 75.9 µM (inactive) | 23.6 µM (inactive) | 84.3 µM | 2.69 µM (inactive) | > 100 µM (inactive) | 38.8 µM (inactive) | > 100 µM (inactive) | > 100 µM (inactive) | 40 µM (inactive) |  | > 100 µM (inactive) | > 100 µM (inactive) | > 100 µM (inactive) | > 100 µM (inactive) | 84.1 µM (inactive) | 35 µM (inactive) | > 100 µM (inactive) | > 100 µM (inactive) | 50.5 µM (inactive) |
| CC12CCC(C1)C(C)(C)C2OC(=O)c1ccccc1C(=O)O (configuration not stated) | > 100 µM (inactive) | > 100 µM (inactive) | > 100 µM (inactive) | > 100 µM | > 100 µM (inactive) | 34.7 µM (inactive) | > 100 µM (inactive) | > 100 µM (inactive) | > 100 µM (inactive) | > 100 µM (inactive) | > 100 µM (inactive) | > 100 µM (inactive) |  | > 100 µM (inactive) | > 100 µM (inactive) | > 100 µM (inactive) | > 100 µM (inactive) | > 100 µM (inactive) | > 100 µM (inactive) | > 100 µM (inactive) |
